From PMC10261806, “Development of lentil peptides with potent antioxidant, antihypertensive, and antidiabetic activities along with umami taste” (Food Science & Nutrition, 2023)

Molecular target: T1, rat intestinal α-glucosidase
T1 construct: gene Si; native commercial rat intestinal preparation (Sigma I1630, usually intestinal acetone powder)
Experiment: p-nitrophenyl-α-D-glucopyranoside hydrolysis, absorbance at […] nm
Type: biochemical
Details: 5 mM PNPG stock, pH 6.8-6.9, 37 °C, 10 min preincubation; positive control

IC50 of inhibitory activity / α-Glucosidase: 510 ± 70 mg/L
Compound: C[C@H]1O[C@H](O[C@H]2[C@H](O)[C@@H](O)[C@@H](O[C@H]3[C@H](O)[C@@H](O)C(O)O[C@@H]3CO)O[C@@H]2CO)[C@H](O)[C@@H](O)[C@@H]1N[C@H]1C=C(CO)[C@@H](O)[C@H](O)[C@H]1O (stereo partly shown) [acarbose]
